The values that follow come from patent publication US11634447B2 (priority 2012, dated 2023).

The assay deals with bacterial strain LF82 binding to the glycoprotein BSA-(Mannose)3. Put plainly: Bacterial Binding Assay (BBA). The assay is classed as cell-based, Escherichia coli. The settings on record: read-out: Bacterial Binding Assay IC50, LF82/Luciferase strain binding to BSA-(Man)3 coated plates, luminescence. In short, it runs like this: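 Inhibition of LF82/luciferase E. coli adhesion is read as luminescence after washing off unbound cells. Compound and bacteria (10^7 per well) are co-incubated 40-75 min at room temperature on wells coated with 0.5-2 μg/mL BSA-(Man)3, with BSA-only wells as background; IC50 values derived.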
On to `CC(C)C1(O)c2cc(C#C[C@H]3O[C@H](CO)[C@@H](O)[C@H](O)[C@@H]3O)ccc2-c2ccc(C#C[C@H]3O[C@H](CO)[C@@H](O)[C@H](O)[C@@H]3O)cc21` [Compound 165, (2R,3S,4R,5S,6R)-2-[2-[9-hydroxy-9-isopropyl-7[2-[(2R,3S,4R,5S,6R)-3,4,5-trihydroxy-6-(hydroxymethyl)tetrahydropyran-2-yl]ethynyl]fluoren-2-yl]ethynyl]-6-(hydroxymethyl)tetrahydropyran-3,4,5-triol], for which the IC50 is 2.4 nM. With `COc1cc(-c2ccc([C@H]3O[C@H](CO)[C@@H](O)[C@H](O)[C@@H]3O)cc2)ccc1[C@H]1O[C@H](CO)[C@@H](O)[C@H](O)[C@@H]1O` [Compound 151], the IC50 worked out at 185 nM. To `OC[C@H]1O[C@H](C#Cc2ccc3c(c2)C2(CCCCO2)c2cc(C#C[C@H]4O[C@H](CO)[C@@H](O)[C@H](O)[C@@H]4O)ccc2-3)[C@@H](O)[C@@H](O)[C@@H]1O` (stereo partly shown) [Compound 199] belongs 0.21 nM; to `OC[C@H]1O[C@H](C#Cc2ccc(C#C[C@H]3O[C@H](CO)[C@@H](O)[C@H](O)[C@@H]3O)s2)[C@@H](O)[C@@H](O)[C@@H]1O` [Compound 138], 31 nM; to `CN(C)C(=O)Cn1c2cc(C#C[C@H]3O[C@H](CO)[C@@H](O)[C@H](O)[C@@H]3O)ccc2c2ccc(C#C[C@H]3O[C@H](CO)[C@@H](O)[C@H](O)[C@@H]3O)cc21` [Compound 181, 2-[2,7-bis[2-[(2R,3S,4R,5S,6R)-3,4,5-trihydroxy-6-(hydroxymethyl)tetrahydropyran-2-yl]ethynyl]carbazol-9-yl]-N,N-dimethyl-acetamide], 10 nM. Turning to `NC(=O)CCC(=O)c1c(C#C[C@H]2O[C@H](CO)[C@@H](O)[C@H](O)[C@@H]2O)ccc2c1C1(CCNCC1)c1cc(C#C[C@H]3O[C@H](CO)[C@@H](O)[C@H](O)[C@@H]3O)ccc1-2` [Compound 234, 4-[2,7-bis[2-[(2R,3S,4R,5S,6R)-3,4,5-trihydroxy-6-(hydroxymethyl)tetrahydropyran-2-yl]ethynyl]spiro[fluorene-9,4piperidine]-1yl]-4-oxo-butanamide], the IC50 came out at 0.04 nM. Regarding `CN1CCN(C2c3cc(C#C[C@H]4O[C@H](CO)[C@@H](O)[C@H](O)[C@@H]4O)ccc3-c3ccc(C#C[C@H]4O[C@H](CO)[C@@H](O)[C@H](O)[C@@H]4O)cc32)CC1` [Compound 198, (2R,3S,4R,5S,6R)-2-(hydroxymethyl)-6-[2-[9-(4-methylpiperazin-1-yl)-7-[2-[(2R,3S,4R,5S,6R)-3,4,5-trihydroxy-6-(hydroxymethyl)tetrahydropyran-2-yl]ethynyl]-9H-fluoren-2-yl]ethynyl]tetrahydropyran-3,4,5-triol], the IC50 turned out to be 24 nM. For the compound `OC[C@H]1O[C@H](C#Cc2ccc3c(c2)C(O)c2cc(C#C[C@H]4O[C@H](CO)[C@@H](O)[C@H](O)[C@@H]4O)ccc2-3)[C@@H](O)[C@@H](O)[C@@H]1O` (stereo partly drawn) [Compound 195, (2R,3S,4R,5S,6R)-2-(hydroxymethyl)-6-[2-[9-hydroxy-7-[2-[(2R,3S,4R,5S,6R)-3,4,5-trihydroxy-6-(hydroxymethyl)tetrahydropyran-2-yl]ethynyl]-9H-fluoren-2-yl]ethynyl]tetrahydropyran-3,4,5-triol], the IC50 is 18 nM. The result for `OCCC1(CCO)c2cc(C#C[C@H]3O[C@H](CO)[C@@H](O)[C@H](O)[C@@H]3O)ccc2-c2ccc(C#C[C@H]3O[C@H](CO)[C@@H](O)[C@H](O)[C@@H]3O)cc21` [Compound 193, (2R,3S,4R,5S,6R)-2-[2-[9,9-Bis(2-hydroxyethyl)-7-[2-[(2R,3S,4R,5S,6R)-3,4,5-trihydroxy-6-(hydroxymethyl)tetrahydropyran-2-yl]ethynyl]fluoren-2-yl]ethynyl]-6-(hydroxymethyl)tetrahydropyran-3,4,5-triol] reads 0.27 nM; that for `OC[C@H]1O[C@H](C#Cc2ccc(C#C[C@H]3O[C@H](CO)[C@@H](O)[C@H](O)[C@@H]3O)c(Cc3ccccc3)c2)[C@@H](O)[C@@H](O)[C@@H]1O` [Compound 158, (2R,3S,4R,5S,6R)-2-[2-[3-benzyl-4-[2-[(2R,3S,4R,5S,6R)-3,4,5-trihydroxy-6-(hydroxymethyl)tetrahydropyran-2-yl]ethynyl]phenyl]ethynyl]-6-(hydroxymethyl)tetrahydropyran-3,4,5-triol], 11 nM. In the case of `OCCC1(O)c2cc(C#C[C@H]3O[C@H](CO)[C@@H](O)[C@H](O)[C@@H]3O)ccc2-c2ccc(C#C[C@H]3O[C@H](CO)[C@@H](O)[C@H](O)[C@@H]3O)cc21` [Compound 216, (2R,3S,4R,5S,6R)-2-[2-[9-hydroxy-9-(2-hydroxyethyl)-7-[2-[(2R,3S,4R,5S,6R)-3,4,5-trihydroxy-6-(hydroxymethyl)tetrahydropyran-2-yl]ethynyl]fluoren-2-yl]ethynyl]-6-(hydroxymethyl)tetrahydropyran-3,4,5-triol], the IC50 stood at 9.9 nM.

With `OC[C@H]1O[C@H](C#Cc2ccc3[nH]c4ccc(C#C[C@H]5O[C@H](CO)[C@@H](O)[C@H](O)[C@@H]5O)cc4c3c2)[C@@H](O)[C@@H](O)[C@@H]1O` [Compound 108, (2R,3S,4R,5S,6R)-2-(hydroxymethyl)-6-[2-[6-[2-[(2R,3S,4R,5S,6R)-3,4,5-trihydroxy-6-(hydroxymethyl)tetrahydropyran-2-yl]ethynyl]-9H-carbazol-3-yl]ethynyl]tetrahydropyran-3,4,5-triol], the IC50 worked out at 28 nM.

As to `CCn1c2cc(C#C[C@H]3O[C@H](CO)[C@@H](O)[C@H](O)[C@@H]3O)ccc2c2ccc(C#C[C@H]3O[C@H](CO)[C@@H](O)[C@H](O)[C@@H]3O)cc21` [Compound 111, (2R,3S,4R,5S,6R)-2-[2-[9-ethyl-7-[2-[(2R,3S,4R,5S,6R)-3,4,5-trihydroxy-6-(hydroxymethyl)tetrahydropyran-2-yl]ethynyl]carbazol-2-yl]ethynyl]-6-(hydroxymethyl)tetrahydropyran-3,4,5-triol], the IC50 came to 2.1 nM. Take `COc1cc([C@H]2O[C@H](CO)[C@@H](O)[C@H](O)[C@@H]2O)ccc1-c1ccc([C@H]2O[C@H](CO)[C@@H](O)[C@H](O)[C@@H]2O)cc1` [Compound 67]: the IC50 was 40 nM. The result for `CN(C)CC(=O)c1c(C#C[C@H]2O[C@H](CO)[C@@H](O)[C@H](O)[C@@H]2O)ccc2c1C1(CCNCC1)c1cc(C#C[C@H]3O[C@H](CO)[C@@H](O)[C@H](O)[C@@H]3O)ccc1-2` [Compound 222, 1-[2,7-bis[2-[(2R,3S,4R,5S,6R)-3,4,5-trihydroxy-6-(hydroxymethyl)tetrahydropyran-2-yl]ethynyl]spiro[fluorene-9,4piperidine]-1yl]-2-(dimethylamino)ethanone] reads 0.08 nM.

Consider `OC[C@H]1O[C@H](C#Cc2ccc(C#C[C@H]3O[C@H](CO)[C@@H](O)[C@H](O)[C@@H]3O)c(Cl)c2Cl)[C@@H](O)[C@@H](O)[C@@H]1O` [Compound 75], for which the IC50 worked out at 76 nM. As to `CCCCCC1(O)c2cc(C#C[C@H]3O[C@H](CO)[C@@H](O)[C@H](O)[C@@H]3O)ccc2-c2ccc(C#C[C@H]3O[C@H](CO)[C@@H](O)[C@H](O)[C@@H]3O)cc21` [Compound 113, (2R,3S,4R,5S,6R)-2-(hydroxymethyl)-6-[2-[9-hydroxy-9-pentyl-7-[2-[(2R,3S,4R,5S,6R)-3,4,5-trihydroxy-6-(hydroxymethyl)tetrahydropyran-2-yl]ethynyl]fluoren-2-yl]ethynyl]tetrahydropyran-3,4,5-triol], the IC50 turned out to be 5.5 nM. The result for `OC[C@H]1O[C@H](C#Cc2ccc3c(c2)C(O)(CC2CCCCC2)c2cc(C#C[C@H]4O[C@H](CO)[C@@H](O)[C@H](O)[C@@H]4O)ccc2-3)[C@@H](O)[C@@H](O)[C@@H]1O` (stereo partly drawn) [Compound 215, (2R,3S,4R,5S,6R)-2-[2-[9-(cyclohexylmethyl)-9-hydroxy-7-[2-[(2R,3S,4R,5S,6R)-3,4,5-trihydroxy-6-(hydroxymethyl)tetrahydropyran-2-yl]ethynyl]fluoren-2-yl]ethynyl]-6-(hydroxymethyl)tetrahydropyran-3,4,5-triol] reads 5 nM; that for `CO[C@H](C)C(=O)c1c(C#C[C@H]2O[C@H](CO)[C@@H](O)[C@H](O)[C@@H]2O)ccc2c1C1(CCNCC1)c1cc(C#C[C@H]3O[C@H](CO)[C@@H](O)[C@H](O)[C@@H]3O)ccc1-2` [Compound 229, (2R)-1-[2,7-bis[2-[(2R,3S,4R,5S,6R)-3,4,5-trihydroxy-6-(hydroxymethyl)tetrahydropyran-2-yl]ethynyl]spiro[fluorene-9,4piperidine]-1yl]-2-methoxy-propan-1-one], 0.35 nM; that for `CC(C)C(=O)N1CCC2(CC1)c1cc(C#C[C@H]3O[C@H](CO)[C@@H](O)[C@H](O)[C@@H]3O)ccc1-c1ccc(C#C[C@H]3O[C@H](CO)[C@@H](O)[C@H](O)[C@@H]3O)cc12` [Compound 224, 1-[2,7-bis[2-[(2R,3S,4R,5S,6R)-3,4,5-trihydroxy-6-(hydroxymethyl)tetrahydropyran-2-yl]ethynyl]spiro[fluorene-9,4piperidine]-1yl]-2-methyl-propan-l-one], 0.08 nM.

Regarding `Cc1cc(/C=C/c2ccc([C@H]3O[C@H](CO)[C@@H](O)[C@H](O)[C@@H]3O)c(C)c2)ccc1[C@H]1O[C@H](CO)[C@@H](O)[C@H](O)[C@@H]1O` [Compound 159, (2R,3S,4R,5S,6R)-2-(hydroxymethyl)-6-[2-methyl-4-[(E)-2-[3-methyl-4-[(2R,3S,4R,5S,6R)-3,4,5-trihydroxy-6-(hydroxymethyl)tetrahydropyran-2-yl]phenyl]vinyl]phenyl]tetrahydropyran-3,4,5-triol], the IC50 worked out at 46 nM.

On to `OCc1cc(C#C[C@H]2O[C@H](CO)[C@@H](O)[C@H](O)[C@@H]2O)ccc1C#C[C@H]1O[C@H](CO)[C@@H](O)[C@H](O)[C@@H]1O` [Compound 95, (2R,3S,4R,5S,6R)-2-(hydroxymethyl)-6-[2-[3-(hydroxymethyl)-4-[2-[(2R,3S,4R,5S,6R)-3,4,5-trihydroxy-6-(hydroxymethyl)tetrahydropyran-2-yl]ethynyl]phenyl]ethynyl]tetrahydropyran-3,4,5-triol], for which the IC50 worked out at 38 nM.
